{"source": "patent US7893056B2", "about": "“Peptide deformylase inhibitors” (GlaxoSmithKline LLC, priority 2007, dated 2011)", "experiment_in_all_cases": "Antimicrobial activity assay, broth microdilution MIC", "assay_type_in_all_cases": "cell-based", "key": {"[1]": {"system": "Streptococcus pneumoniae Ery2", "settings": "Examples 24 and 63: median of all results obtained, others: individual runs, read-out: MIC, S. pneumoniae ERY2", "method": "(§1) Whole-cell antimicrobial activity was determined by broth microdilution using the Clinical and Laboratory Standards Institute (CLSI, formerly NCCLS) recommended methodology (NCCLS Document M7-A6, “Methods for Dilution Susceptibility Tests for Bacteria that Grow Aerobically—Approved Standard Sixth Edition”, 2003). Compounds were tested in serial two-fold dilutions ranging from 64 to 0.06 μg/mL. A panel of 12 strains was evaluated in the assay. This panel consisted of the following laboratory strains: Staphylococcus aureus Oxford, Staphylococcus aureus WCUH29, Enterococcus faecalis 1, Enterococcus faecalis 7, Haemophilus influenzae Q1, Haemophilus influenzae NEMC1, Moraxella catarrhalis 1502, Streptococcus pneumoniae 1629, Streptococcus pneumoniae N1387, Streptococcus pneumoniae Ery2, Escherichia coli 7623 (AcrABEFD+) and Escherichia coli 120 (AcrAB−). The minimum inhibitory concentration (MIC) was determined as the lowest concentration of compound that inhibited visible growth. A mirror reader was used to assist in determining the MIC endpoint."}, "[2]": {"system": "Staphylococcus aureus WCUH29", "settings": "others: individual runs; for MIC: Staphylococcus aureus, WCUH29, Examples 24 and 63: median of all results obtained, read-out: MIC, S. aureus WCUH29", "method": "as §1"}, "[3]": {"system": "Moraxella catarrhalis 1502", "settings": "others: individual runs; for MIC: Moraxella catarrhalis, 1502, Examples 24 and 63: median of all results obtained", "method": "as §1"}, "[4]": {"system": "Streptococcus pneumoniae 1629", "settings": "Examples 24 and 63: median of all results obtained, others: individual runs, read-out: MIC, S. pneumoniae 1629", "method": "as §1"}, "[5]": {"system": "Streptococcus pneumoniae N1387", "settings": "Examples 24 and 63: median of all results obtained, others: individual runs, read-out: MIC, S. pneumoniae N1387", "method": "as §1"}, "Enterococcus faecalis 7": {"system": "Enterococcus faecalis 7", "settings": "others: individual runs; for MIC: Enterococcus faecalis, 7, Examples 24 and 63: median of all results obtained, read-out: MIC, E. faecalis 7; for MIC, E. faecalis 7: Examples 24 and 63: median of all results obtained", "method": "as §1"}, "[6]": {"system": "Staphylococcus aureus Oxford", "settings": "Examples 24 and 63: median of all results obtained, others: individual runs; for MIC: Staphylococcus aureus, read-out: MIC, S. aureus Oxford", "method": "as §1"}, "Enterococcus faecalis 1": {"system": "Enterococcus faecalis 1", "settings": "others: individual runs; for MIC: Enterococcus faecalis, 1, Examples 24 and 63: median of all results obtained, read-out: MIC, E. faecalis I; for MIC, E. faecalis I: Examples 24 and 63: median of all results obtained", "method": "as §1"}, "[7]": {"system": "Escherichia coli 7623 (AcrABEFD+)", "settings": "Examples 24 and 63: median of all results obtained; others: individual runs", "method": "as §1"}, "[8]": {"settings": "Examples 24 and 63: median of all results obtained"}}, "note": "Where “and” joins values, the source holds several entries; their conditions need not be identical. Identical values can stand only once.", "data": [{"smiles": "Cc1nc(NNC(=O)[C@H](CC2CCCC2)CN(O)C=O)c(F)c(N2CCN3CCOC[C@@H]3C2)n1", "note": "[Example 24, [(2R)-2-(Cyclopentylmethyl)-3-(2-{5-fluoro-6-[(9aS)-hexahydropyrazino[2,1-c][1,4]oxazin-8(1H)-yl]-2-methyl-4-pyrimidinyl}hydrazino)-3-oxopropyl]hydroxyformamide]", "values": [{"measurement": "MIC", "setting": "[1]", "value": 0.375, "unit": "µg/mL"}, {"measurement": "MIC", "setting": "[2]", "value": 0.375, "unit": "µg/mL"}, {"measurement": "MIC", "setting": "[3]", "value": 0.375, "unit": "µg/mL"}]}, {"smiles": "C[C@@H]1CN(C)CCN1c1nc(Cl)nc(NNC(=O)[C@H](CC2CCCC2)CN(O)C=O)c1F", "note": "[Example 63, [(2R)-3-(2-{2-Chloro-6-[(2R)-2,4-dimethyl-1-piperazinyl]-5-fluoro-4-pyrimidinyl}hydrazino)-2-(cyclopentylmethyl)-3-oxopropyl]hydroxyformamide]", "values": [{"measurement": "MIC", "setting": "[4]", "value": 0.5, "unit": "µg/mL"}, {"measurement": "MIC", "setting": "[5]", "value": 0.25, "unit": "µg/mL"}, {"measurement": "MIC", "setting": "Enterococcus faecalis 7", "value": 64, "unit": "µg/mL"}, {"measurement": "MIC", "setting": "[1]", "value": 0.25, "unit": "µg/mL"}, {"measurement": "MIC", "setting": "[6]", "value": 1, "unit": "µg/mL"}, {"measurement": "MIC", "setting": "[2]", "value": 0.5, "unit": "µg/mL"}, {"measurement": "MIC", "setting": "[3]", "value": 0.125, "unit": "µg/mL"}, {"measurement": "MIC", "setting": "Enterococcus faecalis 1", "value": 16, "unit": "µg/mL"}]}, {"smiles": "Cc1nc(NNC(=O)[C@H](CC2CCCC2)CN(O)C=O)c(F)c(N2CCN(C)C[C@H]2C)n1", "note": "[Example 109, [(2R)-2-(Cyclopentylmethyl)-3-(2-{6-[(2R)-2,4-dimethyl-1-piperazinyl]-5-fluoro-2-methyl-4-pyrimidinyl}hydrazino)-3-oxopropyl]hydroxyformamide]", "values": [{"measurement": "MIC", "setting": "[4]", "value": 0.5, "unit": "µg/mL"}, {"measurement": "MIC", "setting": "[5]", "value": 0.25, "unit": "µg/mL"}, {"measurement": "MIC", "setting": "Enterococcus faecalis 7", "value": "> 64", "unit": "µg/mL"}, {"measurement": "MIC", "setting": "[1]", "value": 0.25, "unit": "µg/mL"}, {"measurement": "MIC", "setting": "[6]", "value": 2, "unit": "µg/mL"}, {"measurement": "MIC", "setting": "[2]", "value": 0.5, "unit": "µg/mL"}, {"measurement": "MIC", "setting": "[3]", "value": 0.25, "unit": "µg/mL"}, {"measurement": "MIC", "setting": "Enterococcus faecalis 1", "value": 64, "unit": "µg/mL"}, {"measurement": "MIC, E. faecalis I", "setting": "Enterococcus faecalis 1", "value": "64, >64 μg/ml"}]}, {"smiles": "CN1CCN(c2nc(Cl)nc(NNC(=O)[C@H](CC3CCCC3)CN(O)C=O)c2F)CC12CC2", "note": "[Example 172, [(2R)-3-{2-[2-Chloro-5-fluoro-6-(4-methyl-4,7-diazaspiro[2.5]oct-7-yl)-4-pyrimidinyl]hydrazino}-2-(cyclopentylmethyl)-3-oxopropyl]hydroxyformamide]", "values": [{"measurement": "MIC", "setting": "[4]", "value": 0.5, "unit": "µg/mL"}, {"measurement": "MIC", "setting": "[5]", "value": 0.125, "unit": "µg/mL"}, {"measurement": "MIC, E. faecalis 7", "setting": "Enterococcus faecalis 7", "value": "8 µg/mL and 64 µg/mL"}, {"measurement": "MIC", "setting": "[1]", "value": "0.125 to 0.25", "unit": "µg/mL"}, {"measurement": "MIC, S. aureus Oxford", "setting": "[6]", "value": 2, "unit": "µg/mL"}, {"measurement": "MIC", "setting": "[6]", "value": 1, "unit": "µg/mL"}, {"measurement": "MIC, E. coli 7623 AcrABEFD+", "setting": "[7]", "value": "4 µg/mL and 16 µg/mL"}, {"measurement": "MIC", "setting": "[2]", "value": 0.5, "unit": "µg/mL"}, {"measurement": "MIC, M. catarrhalis 1502", "setting": "[3]; [8]", "value": "≤ 0.06 µg/mL and 0.125 µg/mL"}, {"measurement": "MIC", "setting": "Enterococcus faecalis 1", "value": 16, "unit": "µg/mL"}]}, {"smiles": "Cc1nc(NNC(=O)[C@H](CC2CCCC2)CN(O)C=O)c(F)c(N2CCN(C)C3(CC3)C2)n1", "note": "[Example 275, ((2R)-2-(Cyclopentylmethyl)-3-{2-[5-fluoro-2-methyl-6-(4-methyl-4,7-diazaspiro[2.5]oct-7-yl)-4-pyrimidinyl]hydrazino}-3-oxopropyl)hydroxyformamide]", "values": [{"measurement": "MIC", "setting": "[4]", "value": 1, "unit": "µg/mL"}, {"measurement": "MIC", "setting": "[5]", "value": 0.5, "unit": "µg/mL"}, {"measurement": "MIC, E. faecalis 7", "setting": "Enterococcus faecalis 7", "value": "16 µg/mL and 64 µg/mL"}, {"measurement": "MIC", "setting": "[1]", "value": 0.5, "unit": "µg/mL"}, {"measurement": "MIC, S. aureus Oxford", "setting": "[6]", "value": 4, "unit": "µg/mL"}, {"measurement": "MIC", "setting": "[6]", "value": 2, "unit": "µg/mL"}, {"measurement": "MIC, E. coli 7623 AcrABEFD+", "setting": "[7]", "value": "4 µg/mL and 16 µg/mL"}, {"measurement": "MIC, S. aureus WCUH29", "setting": "[2]; [8]", "value": 1, "unit": "µg/mL"}, {"measurement": "MIC", "setting": "[2]", "value": 0.5, "unit": "µg/mL"}, {"measurement": "MIC", "setting": "[3]", "value": 0.25, "unit": "µg/mL"}, {"measurement": "MIC", "setting": "Enterococcus faecalis 1", "value": 32, "unit": "µg/mL"}, {"measurement": "MIC, E. faecalis I", "setting": "Enterococcus faecalis 1", "value": 64, "unit": "µg/mL"}]}]}
